Assay results as given in paper PMC12280925, “Structure-based discovery of positive allosteric modulators of the A1 adenosine receptor” (Proceedings of the National Academy of Sciences of the …, 2025).
Changes are numbered by the printed parent chain. Where two headings read alike, the source gives them in different places.

Tests used:
[1] = system: A1R-mediated rat atrial beat rate; assay: Isolated rat atria: NECA-mediated decrease in contractile rate; conditions: approximate, read-out: potency (EC50) for inhibition in rat atrial beat rate
Experimental: Isolated rat atrial experiments were performed as previously described ([53]). Briefly, 10 to 16 wk old male Sprague Dawley rats were anesthetized with xylazine/ketamine and the chest cavity of the rat was opened to fully expose the heart, which was rapidly removed and placed in Krebs–Henseleit solution. The heart was cut transversely below the right and left atria to remove the ventricles, and the remaining […] were trimmed carefully. Atria was then mounted in an organ bath at 37 °C, bubbled with 5% CO2/95% O2, and allowed to contract spontaneously. The rate of atrial contraction was measured using a force transducer connected to a PowerLab data acquisition system. […] All experiments involving animals were approved by the Monash Institute of Pharmaceutical Sciences Animal Ethics Committee under project number 20213.

A1R (A1R-FlpInCHO cells) [2] = target: T1, A1R (A1R-FlpInCHO cells) (Homo sapiens, UniProt P30542); assay: Whole-cell [3H]DPCPX competition binding: NECA affinity in absence or presence of compound; conditions: 30 μM compound; for effect on NECA affinity (pKI): [3H]DPCPX competition binding, A1R-FlpINCHO cells; for effect on [3H]DPCPX binding (1 nM): absence of orthosteric agonist
T1 sequence (P30542 1-326): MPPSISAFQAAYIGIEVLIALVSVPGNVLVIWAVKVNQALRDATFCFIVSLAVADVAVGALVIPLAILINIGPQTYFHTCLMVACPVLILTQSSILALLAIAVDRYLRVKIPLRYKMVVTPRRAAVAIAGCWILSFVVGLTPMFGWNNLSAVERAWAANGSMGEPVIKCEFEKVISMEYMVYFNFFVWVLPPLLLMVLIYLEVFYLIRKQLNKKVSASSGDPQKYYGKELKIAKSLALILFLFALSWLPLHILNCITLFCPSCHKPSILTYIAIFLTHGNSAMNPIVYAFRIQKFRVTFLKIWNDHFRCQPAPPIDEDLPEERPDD
Experimental: [^3H]DPCPX (8-cyclopentyl-1,3-dipropylxanthine, [dipropyl-2,3-^3H(N)]) whole-cell binding assays were performed on FlpINCHO cells stably expressing either WT (nontagged or 3xHA-tagged) or mutant 3xHA-A1R. Cells were seeded into a transparent 96-well plate at 40,000 cells/well in DMEM containing 10% FBS. Following 8 h incubation in a humidified environment at 37 °C in 5% CO2, cells were washed and maintained in serum-free DMEM for approximately 18 h at 37 °C in 5% CO2. […] Assays were terminated by washing twice with 100 μL/well cold phosphate-buffered saline, followed by the addition of 100 μL OptiPhase Supermix™ scintillation cocktail and bound radioactivity measured using a MicroBeta^2 ™ plate counter (PerkinElmer).
[^3H]DPCPX competition binding curves were fitted to a one-site inhibitory mass action equation:[1] Y=Bottom+Top-Bottom/1+10^X-LogIC50,
The top and bottom represent the maximal and minimal binding in the presence of the competitive ligand, respectively. Equilibrium dissociation constant (KI) values were subsequently derived from inhibition binding experiments using the Cheng–Prusoff equation:[2] KI=IC50/1+A/KD.

A1R (A1R-FlpInCHO cells) [3] = target: T1, A1R (A1R-FlpInCHO cells); assay: Inhibition of forskolin-stimulated cAMP accumulation: NECA potency ± compound and compound alone; type: cell-based; conditions: for effect on NECA potency (pEC50): 30 μM compound, inhibition of forskolin-stimulated cAMP accumulation; for allosteric agonism (functional response in the absence of NECA): 30 μM compound alone, 3 μM forskolin-stimulated cAMP accumulation
Experimental: (§1) FlpInCHO cell lines and cortical neuron cells were seeded into transparent 96-well plates at 20,000 cells/well and incubated for 16 to 20 h in a humidified incubator at 37 °C in 5% CO2. […] Compounds were added at either a single concentration (10 or 30 μM) or a concentration range for full interaction studies (3 to 30 μM), and plates were incubated for 30 to 60 min at 37 °C in a humidified chamber. […] After 30 min incubation at 37 °C, the reaction was terminated by rapid removal of buffer and the addition of 50 μL/well cold ethanol. […] Agonist concentration–response curves were normalized to the response mediated by 3 µM forskolin […].
Response=Basal+Emax-Basal×A/EC50+A,

[4] = target: T2, A1R allosteric site (A1R-FlpINCHO cells, wild type) (Homo sapiens, UniProt P30542); assay: Whole-cell [3H]DPCPX interaction binding with NECA, allosteric ternary complex model; conditions: for binding cooperativity with NECA (logα): orthosteric agonist NECA
T2 sequence (P30542 1-326): T1 sequence (P30542 1-326)
Source text: Equilibrium binding interaction experiments were fitted to the following allosteric ternary complex model.[3] Y=BmaxA/A+KAKB/αAB+KB1+[I]/KI+[B]/KB+αII[B]/KIKB,
A cooperativity factor α > 1 describes positive cooperativity; a value 0 < α < 1 describes negative cooperativity, and a value of α = 1 describes neutral cooperativity.

A1R (A1R-FlpInCHO cells) [5] = target: T1, A1R (A1R-FlpInCHO cells); assay: NECA/allosteric ligand interaction in cAMP accumulation, operational model of allosterism; type: cell-based; conditions: for allosteric ligand efficacy (logτB): allosteric agonism in cAMP; for functional cooperativity with NECA (logαβ): cAMP
Experimental: as §1
[5] E=EmτAAKB+αβ[B]+τB[B]KA^n/AKB+KAKB+[B]KA+α[A][B]^n+τAAKB+αβ[B]+τB[B]KA^n
Orthosteric agonist and allosteric ligand affinity were constrained to values determined from radioligand binding.

A1R S246^6.47A mutant = target: T3, A1R S246^6.47A mutant (Homo sapiens, UniProt P30542, S246A); assay: [3H]DPCPX interaction binding at mutant S246A-A1R-FlpINCHO
T3 construct: expressed in transfected cells; host or cells: FlpInCHO cells, stably transfected
T3 sequence (P30542 1-326 S246A): T1 sequence (P30542 1-326) with S246A

A1R G279^7.44A mutant = target: T4, A1R G279^7.44A mutant (Homo sapiens, UniProt P30542, G279A); assay: [3H]DPCPX interaction binding at mutant G279A-A1R-FlpINCHO
T4 construct: expressed in transfected cells; host or cells: FlpInCHO cells, stably transfected
T4 sequence (P30542 1-326 G279A): T1 sequence (P30542 1-326) with G279A

A2AR = target: T5, A2AR (Homo sapiens, UniProt P29274); assay: cAMP accumulation in A2AR FlpINCHO cells (selectivity); type: cell-based
T5 construct: expressed in transfected cells; host or cells: FlpInCHO cells, stably transfected
T5 sequence (P29274 whole entry): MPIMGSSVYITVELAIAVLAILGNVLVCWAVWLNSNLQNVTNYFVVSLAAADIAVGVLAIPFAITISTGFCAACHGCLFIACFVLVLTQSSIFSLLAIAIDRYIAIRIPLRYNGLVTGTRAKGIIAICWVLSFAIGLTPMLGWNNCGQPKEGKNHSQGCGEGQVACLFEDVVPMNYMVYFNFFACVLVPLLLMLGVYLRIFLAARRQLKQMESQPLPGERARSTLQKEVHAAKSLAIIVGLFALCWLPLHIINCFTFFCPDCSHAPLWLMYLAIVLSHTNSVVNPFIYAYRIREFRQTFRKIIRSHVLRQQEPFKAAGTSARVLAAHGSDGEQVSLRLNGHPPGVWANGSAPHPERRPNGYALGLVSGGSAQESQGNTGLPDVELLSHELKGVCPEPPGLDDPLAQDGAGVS

A2BR = target: T6, A2BR (Homo sapiens, UniProt P29275); assay: cAMP accumulation in A2BR FlpINCHO cells (selectivity); type: cell-based
T6 construct: expressed in transfected cells; host or cells: FlpInCHO cells, stably transfected
T6 sequence (P29275 1-332): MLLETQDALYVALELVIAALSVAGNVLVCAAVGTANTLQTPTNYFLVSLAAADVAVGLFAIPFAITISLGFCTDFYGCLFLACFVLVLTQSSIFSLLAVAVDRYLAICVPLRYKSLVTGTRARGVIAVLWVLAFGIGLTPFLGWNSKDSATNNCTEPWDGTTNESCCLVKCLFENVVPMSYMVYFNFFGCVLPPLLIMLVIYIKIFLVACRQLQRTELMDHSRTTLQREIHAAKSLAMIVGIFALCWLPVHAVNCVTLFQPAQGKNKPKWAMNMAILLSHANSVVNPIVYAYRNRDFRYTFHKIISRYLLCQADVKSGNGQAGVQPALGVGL

A3R = target: T7, A3R (Homo sapiens, UniProt P0DMS8); assay: cAMP accumulation in A3R FlpINCHO cells (selectivity); type: cell-based
T7 construct: expressed in transfected cells; host or cells: FlpInCHO cells, stably transfected
T7 sequence (P0DMS8 1-318): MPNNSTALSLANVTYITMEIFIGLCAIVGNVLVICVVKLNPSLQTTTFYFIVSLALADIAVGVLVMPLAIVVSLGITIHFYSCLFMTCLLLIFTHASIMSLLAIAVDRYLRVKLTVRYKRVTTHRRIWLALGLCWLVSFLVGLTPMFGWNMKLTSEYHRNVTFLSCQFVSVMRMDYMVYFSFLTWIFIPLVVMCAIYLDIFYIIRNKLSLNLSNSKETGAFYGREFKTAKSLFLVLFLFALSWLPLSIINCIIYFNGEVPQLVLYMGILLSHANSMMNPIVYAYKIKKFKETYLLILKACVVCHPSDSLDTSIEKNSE

M2 receptor (M2R) = target: T8, M2 receptor (M2R) (Homo sapiens, UniProt P08172); assay: cAMP accumulation in M2 receptor FlpINCHO cells (selectivity); type: cell-based; conditions: acetylcholine as agonist
T8 sequence (P08172 1-466): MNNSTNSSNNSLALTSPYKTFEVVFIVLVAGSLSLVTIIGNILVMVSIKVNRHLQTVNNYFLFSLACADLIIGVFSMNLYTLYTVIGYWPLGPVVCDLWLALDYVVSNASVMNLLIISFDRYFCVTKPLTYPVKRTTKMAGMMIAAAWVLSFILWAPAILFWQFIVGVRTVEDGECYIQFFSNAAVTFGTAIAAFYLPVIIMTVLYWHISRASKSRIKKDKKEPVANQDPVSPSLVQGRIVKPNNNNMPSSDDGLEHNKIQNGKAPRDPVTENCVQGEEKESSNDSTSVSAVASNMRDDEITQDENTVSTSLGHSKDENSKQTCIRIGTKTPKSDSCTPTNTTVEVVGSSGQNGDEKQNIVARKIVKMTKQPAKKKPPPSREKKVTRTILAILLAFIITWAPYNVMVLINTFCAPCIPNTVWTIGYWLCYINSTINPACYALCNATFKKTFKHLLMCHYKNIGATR

[6] = system: nontransfected FlpINCHO cells; assay: cAMP accumulation in nontransfected FlpINCHO cells; type: cell-based, Chinese hamster; conditions: 10 µM compound
[7] = allosteric ternary complex model

CCNC(=O)[C@H]1O[C@@H](n2cnc3c(N)ncnc32)[C@H](O)[C@@H]1O [NECA, 5′-N-ethylcarboxamidoadenosine]
EC50 [1]: ~0.13 µM

CCCc1sc(N)nc1-c1ccc(C)cc1C [compound 2]
effect on NECA affinity (pKI) (A1R (A1R-FlpInCHO cells) [2]): significantly enhanced
effect on NECA potency (pEC50) (A1R (A1R-FlpInCHO cells) [3]; A1R-FlpINCHO cells): significantly enhanced

Nc1nc(-c2cccc3ccccc23)cs1 [compound 12]
effect on NECA affinity (pKI) (A1R (A1R-FlpInCHO cells) [2]): significantly enhanced
effect on [3H]DPCPX binding (1 nM) (A1R (A1R-FlpInCHO cells) [2]): modest but significant decrease
allosteric agonism (functional response in the absence of NECA) (A1R (A1R-FlpInCHO cells) [3]): no significant effect
effect on NECA potency (pEC50) (A1R (A1R-FlpInCHO cells) [3]; A1R-FlpINCHO cells): significantly enhanced
Kb ([4]; allosteric ternary complex model, n = 4, read-out: allosteric ligand affinity (pKB) (converted)): 23.4 µM
binding cooperativity with NECA (logα) [4, 7]: 0.99 ± 0.25
positive cooperativity between PAM and NECA ([4]; approximate, from logα): ~10 fold
Kd ([4]; approximate, from pKB, read-out: affinity for the A1R allosteric site): ~25 µM
allosteric ligand efficacy (logτB) (A1R (A1R-FlpInCHO cells) [5]): −0.65 ± 0.12
functional cooperativity with NECA (logαβ) (A1R (A1R-FlpInCHO cells) [5]): 0.68 ± 0.10

Cc1ccc(C(=O)c2c(N)sc(C)c2C)cc1 [compound 20]
effect on NECA affinity (pKI) (A1R (A1R-FlpInCHO cells) [2]): significantly enhanced
effect on [3H]DPCPX binding (1 nM) (A1R (A1R-FlpInCHO cells) [2]): modest but significant decrease
allosteric agonism (functional response in the absence of NECA) (A1R (A1R-FlpInCHO cells) [3]): no significant effect
effect on NECA potency (pEC50) (A1R (A1R-FlpInCHO cells) [3]; A1R-FlpINCHO cells): significantly enhanced

Nc1ccc(Cl)cc1C(=O)c1ccc(F)cc1 [compound 22]
effect on NECA affinity (pKI) (A1R (A1R-FlpInCHO cells) [2]): significantly enhanced

CCCc1sc(N)nc1-c1ccc(C)c2ccccc12 [compound 54]
agonism (compound alone) (A1R (A1R-FlpInCHO cells) [3]; A1R-FlpINCHO cells): modest functional response
binding cooperativity (logα) with NECA ([4]; WT A1R, Table S2): 0.92
Kb ([4]; allosteric ligand affinity (pKB), allosteric ternary complex model, n = 4): 7.08 µM
binding cooperativity with NECA (logα) [4, 7]: 1.15 ± 0.10
Kb ([4]; pKB, WT A1R, mean ± SEM (n), Table S2): 5.62 µM
allosteric ligand efficacy (logτB) (A1R (A1R-FlpInCHO cells) [5]): −0.37 ± 0.10
functional cooperativity with NECA (logαβ) (A1R (A1R-FlpInCHO cells) [5]): 0.84 ± 015
effect of S246^6.47A on affinity or cooperativity (A1R S246^6.47A mutant): did not significantly decrease
Kb (A1R S246^6.47A mutant; […], Table S2): 5.13 µM
binding cooperativity (logα) with NECA (A1R S246^6.47A mutant; […], Table S2): 1.10
effect of G279^7.44A on affinity (A1R G279^7.44A mutant): did not influence
effect of G279^7.44A on allosteric cooperativity with the orthosteric agonist (A1R G279^7.44A mutant): significantly decreased
Kb (A1R G279^7.44A mutant; […], Table S2): 2.14 µM
binding cooperativity (logα) with NECA (A1R G279^7.44A mutant; […], Table S2): -0.05
effect on NECA potency (A2AR; 10 µM compound, A2AR): no significant effect
agonism (compound alone) (A2AR; 30 μM, A2AR FlpINCHO cells): no appreciable activity
effect on NECA potency (A2BR; 10 µM compound, A2BR): no significant effect
agonism (compound alone) (A2BR; 30 μM, A2BR FlpINCHO cells): no appreciable activity
effect on NECA potency (A3R; 10 µM compound, A3R): no significant effect
agonism (compound alone) (A3R; 30 μM, A3R FlpINCHO cells): no appreciable activity
effect in FlpINCHO cells expressing the M2 receptor (M2 receptor (M2R)): no significant effect
effect in nontransfected FlpINCHO cells [6]: no significant effect
